# Data as given in patent US7355079B2, “Thyronamine derivatives and analogs and methods of use thereof” (The Regents of the University of California, priority 2003, dated 2008).
# Entries after “also recorded” stand apart in the source; their conditions may differ.
# Legend:
# [1] = test system: C57Bl/6J mice; test: core body temperature of mice injected intraperitoneally or intracerebrally; assay type: in vivo; conditions: mouse, intraperitoneal or intracerebral injection
# Protocol: Eight week old male C57 Black 6J (C57Bl/6J) mice were injected intraperitoneally (i.p.) with the indicated dose of 3-iodothyronamine (T1AM) dissolved in 60% DMSO and normal saline (pH 7.4). Mice were injected intraperitoneally with a dose of T1AM at 18.75, 37.5, or 75 mg/kg body weight. Core body temperature was measured as rectal temperature every 30 minutes for the first 2 hours and then again at 3, 4, and 24 hours post injection. The core body temperature response (with standard error) to each dose reflects the response of 7-8 mice in a room maintained at 24° C.
# Core body temperature response was measured in an adult male C57Bl/6J mouse injected intraperitoneally with a dose of T1AM at 100 mg/kg T1AM. The mouse was implanted with a telemetry-emitting temperature sensing probe for more accurate measurement of core body temperature.
# Thermal response was measured in an adult male C57Bl/6J mouse to a unilateral intracerebroventricular injection of T1AM dissolved in 60% DMSO/40% normal saline at a dose of 6.6 mg/kg body weight. The mouse was instrumented with a telemetry-emitting temperature sensing probe.
# [2] = test system: C57Bl/6J mice; test: blood glucose levels of mice injected intraperitoneally; assay type: in vivo, mouse; conditions: 50 mg/kg
# Protocol: (BTC; ambient temperature −31° C.).
# [3] = test system: mice; test: responses of mice within minutes of T1AM injection; assay type: in vivo, mouse
# From the text: (§1) One of the most consistent clinical findings in individuals with severe hypothyroidism is depression. […] The underlying mechanism of this potentiation remains to be elucidated. Other physiological manifestations of depression that may also have a TH component include thermoregulatory disturbances, decreased metabolic rate, decreased cardiorespiratory fitness, inactivity, and hyperglycemia. Recently we discovered 3-iodothyronamine (T1AM), a novel endogenous metabolite of TH (Scanlan et al., Nature Medicine 10:638, 2004) that is a potent agonist of rodent and human G protein-coupled trace amine associated receptors (Lindemann et al., Genomics 85:372, 2005).
# [4] = test system: C57Bl/6J mice; test: heart rate and blood pressure responses in mice; assay type: in vivo; conditions: mouse, i.p. approximately 75-80 mg/kg
# Protocol: Heart rate and blood pressure responses were measured in an adult male C57Bl/6J mouse injected intraperitoneally with T1AM in 60% DMSO/40% normal saline at a dose of approximately 75-80 mg/kg body weight in two replicate experiments.
# Heart rate and blood pressure responses were measured in two drug naive adult male C57Bl/6J mouse following intraperitoneal injection of T1AM at a dose of approximately 75 mg/kg body weight.
# [5] = target: T1, mouse TAR-1 (Mus musculus, UniProt Q923Y8); test: cAMP assay, activation of mouse TAR-1; assay type: cell-based
# T1 construct: expressed in transfected cells
# Protocol: (§2) cAMP Assay. HEK293 cells were harvested in Krebs-Ringer-HEPES buffer (KRH) and preincubated in KRH with 200 μM 3-isobutyl-methylxanthine. For drug treatments cells were incubated in KRH with 100 μM 3-isobutyl-1-methylxanthine with the test compound (or 10 μM forskolin) for 1 hour at 37° C. The cells were then boiled for 20 minutes after adding an equal volume of 0.5 mM sodium acetate buffer, centrifuged to remove cell debris, and the resulting extract was analyzed for cAMP content using competitive binding of [^3H]cAMP to a cAMP binding protein (Diagnostic Products Corp., Los Angeles, Calif.). Data were normalized according to protein content as determined using the Bradford reagent (Bio-Rad). Concentration-response curves were plotted and EC50 values calculated with Prism software (GraphPad, San Diego, Calif.).
# [6] = i.v. serum half-life; conditions: iv
# [7] = target: T2, rat trace amine receptor (rTAR-1) (Rattus norvegicus, UniProt Q923Y9); test: cAMP accumulation in HEK cells stably expressing rTAR-1; assay type: cell-based
# T2 construct: expressed in transfected cells
# Protocol: To test this, the synthetic iodo-thyronamines were assayed for their ability to stimulate cAMP accumulation in human embryonic kidney (HEK) cells stably expressing rTAR-1, as well as cells transfected with an empty vector. […] To address the issue of receptor selectivity, all of the iodo-thyronamines were tested for their ability to activate the dopamine receptors and the β-adrenergic receptors.
# as §2
# [8] = test system: ex vivo rat heart preparation; test: ex vivo rat heart preparation, cardiac output
# From the text: as §1
# T2 sequence (Q923Y9 whole entry): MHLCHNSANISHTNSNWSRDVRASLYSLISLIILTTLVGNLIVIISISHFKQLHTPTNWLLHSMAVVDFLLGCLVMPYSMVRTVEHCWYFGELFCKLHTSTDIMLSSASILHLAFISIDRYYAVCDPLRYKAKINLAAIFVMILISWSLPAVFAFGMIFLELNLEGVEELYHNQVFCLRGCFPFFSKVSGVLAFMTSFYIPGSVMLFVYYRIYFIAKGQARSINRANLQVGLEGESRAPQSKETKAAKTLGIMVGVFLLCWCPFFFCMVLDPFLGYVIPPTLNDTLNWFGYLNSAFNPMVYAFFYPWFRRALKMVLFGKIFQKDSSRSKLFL
# T1 sequence (Q923Y8 whole entry): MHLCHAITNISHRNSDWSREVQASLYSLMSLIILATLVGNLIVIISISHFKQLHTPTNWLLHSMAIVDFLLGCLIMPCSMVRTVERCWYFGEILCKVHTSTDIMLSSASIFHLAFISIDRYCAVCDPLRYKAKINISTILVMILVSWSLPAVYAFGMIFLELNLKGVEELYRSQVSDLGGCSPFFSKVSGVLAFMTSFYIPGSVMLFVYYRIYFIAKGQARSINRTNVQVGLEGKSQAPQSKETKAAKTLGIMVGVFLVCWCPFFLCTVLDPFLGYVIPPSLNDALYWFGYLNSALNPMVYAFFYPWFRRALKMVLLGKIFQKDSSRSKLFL
compound,measurement,setting,value
"Cl.NCCc1ccc(Oc2ccc(O)cc2)c(I)c1 [Compound T1AM, 3-iodothyronamine Hydrochloride]",core body temperature after injection (decrease from approximately 38° C.),[1],approximately 29 °C
same,period of decreased core body temperature,[1],6.5 to 8 h
same,hyperglycemia when body temperature is held constant,[2]; body temperature near 37° C. (BTC; ambient temperature ~31° C.),"still significant, but the effect is smaller in magnitude"
same,blood glucose levels,"[2]; i.p., room temperature (21° C.-22° C.), Hydrochloride",increase blood glucose levels; also recorded: significant increase in blood sugar levels
same,response of mice within minutes of injection,[3],"reduction in their metabolic rate, body temperature, locomotor activity, and heart rate while blood glucose becomes elevated"
same,heart rate throughout the treatment period,[4],remained constant
same,blood pressure,[4]; Hydrochloride,"varied with the drop in body core temperature, but recovered to normal levels; also recorded: varied with the drop in body core temperature, but returned to normal levels"
same,EC50,[5],112 nM
same,half-life,[6],2 to 2.5 h
same,EC50,[7],14 nM
same,binding to the TAR receptor using a cAMP assay,[7],high affinity
same,increase in agonist potency for rTAR-1 relative to T0AM,[7]; addition of a single iodine atom to the 3-position of T0AM,~10 fold
same,cardiac output,[8],rapidly reduce cardiac output
